Measured values as given in patent US5981573A, “N,N-disubstituted amic acid derivatives” (Banyu Pharmaceutical Co., Ltd., priority 1996, dated 1999).

Key:
[1] = test system: farnesyl-modification of Ras protein in NIH3T3 cells transformed by activated ras gene; test: Inhibitory activities against farnesyl-modification of Ras protein in NIH3T3 cells transformed by activated ras gene; assay type: cell-based; conditions: Mus musculus, 24 hours, read-out: 50% inhibitory concentrations (IC50) against farnesyl-modification of Ras protein
Procedure: PHARMACOLOGICAL TEST EXAMPLE 2 (Inhibitory activities against farnesyl-modification of Ras protein)
Using the compounds of the present invention, inhibitory activities against farnesyl-modification of Ras protein in NIH3T3 cells transformed by activated ras gene, were measured.
The NIH3T3 cells transformed by activated ras gene, were seeded on a culture plate and cultured for 3 days. Then, a compound of the present invention in a predetermined concentration was added to the culture. In accordance with the method disclosed in J. Biol. Chem., vol. 268, p. 18415 (1993), the cells were cultured for 24 hours and then taken off from the plate, and the cells were dissolved. After centrifugal separation for 5 minutes under 12000 g, the supernatant was used as a cell extract. The cell extract was subjected to SDS polyacrylamide gel electrophoresis to separate farnesyl-modified Ras protein and non-farnesyl-modified Ras protein. The protein on the gel was transferred onto a nitrocellulose membrane, and an anti-Ras protein antibody was reacted as a probe (primary antibody reaction). An anti-primary antibody, a peroxidase inclusion (secondary antibody), was reacted, and then Ras protein was detected by a chemical fluorescence enhancing kit. The proportion of non-farnesyl-modified Ras protein was quantified by a densitometer and taken as the inhibitory activity. […]

[2] = molecular target: T1, protein-farnesyl transferase (PFT) (Rattus norvegicus, UniProt Q02293+Q04631); test: Inhibitory activities against protein-farnesyl transferase (PFT); assay type: biochemical; conditions: PFT derived from rat brain; prenyl acceptor H-ras protein or biotin-added Lys-Thr-Ser-Cys-Val-Ile-Met; 37° C., 20 minutes; read-out: 50% inhibitory concentrations (IC50) against PFT activities
T1 construct: PFT derived from rat brain (Q-sepharose fraction); from tissue; host or cells: rat brain (soluble fraction, 30-50% ammonium sulfate cut, Q-Sepharose fraction)
Procedure: Pharmacological Test 1 (Inhibitory activities against protein-farnesyl transferase)
PFT was separated in such a manner that a soluble fraction of rat s brain was fractionated by means of 30%-50% saturated ammonium sulfate, further dialyzed and then subjected to column chromatography by Q-sepharose™ (manufactured by Pharmacia) (Reiss et al., Cell, vol. 62, pp. 81-88 (1990)).
(2) Method for measuring PFT activities
Measurement of PFT activities was conducted by using, as a prenyl acceptor, H-ras protein or a peptide corresponding to the C-terminal 7 amino acid residues of K-rasB protein which had biotin added to the N-terminal (biotin-added Lys-Thr-Ser-Cys-Val-Ile-Met) and, as a prenyl donor, [^3 H]-labeled farnesyl pyrophosphate (FPP) (Reiss et al., Methods: A Companion to Methods in Enzymology, vol. 1, No. 3, pp. 241-245 (1990)). […]
The enzymatic reaction product containing H-ras protein as the prenyl acceptor, was analyzed by SDS-PAGE (sodium dodecyl sulfate/polyacrylamide gel electrophoresis). […]
The measurement of PFT activities using H-ras protein as the prenyl receptor, was also analyzed by a rapid separate method. […]

SMILES | IC50 [1] [nM] | IC50 [2] [nM]
CCOC(=O)C(CC(=O)O)=C(O)C(=O)N(CC#Cc1ccccc1)[C@H](C)[C@H](Cc1ccc(C(=O)Nc2ccccc2)o1)c1ccc2c(c1)OCO2 (relative stereo) [Example 17, 3-(ethoxycarbonyl)-4-hydroxy-4-[N [(1RS,2RS)-1-methyl-2-(3,4-methylenedioxyphenyl)-3-{5-(phenylcarbamoyl)-2-furyl}propyl]-N-(3-phenyl-2-propynyl)carbamoyl]-3-butenoic acid] | 4.3 | 1.7
C[C@H]([C@H](Cc1ccc(C(=O)Nc2ccccc2)o1)c1ccc2c(c1)OCO2)N(C/C=C/c1ccccc1)C(=O)C(O)=C(CC(=O)O)C(=O)OC(C)(C)C [Example 1, 3-(tert-butoxycarbonyl)-4-hydroxy-4-[N-[(1R,2R)-1-methyl-2-(3,4-methylenedioxyphenyl)-3-{5-(phenylcarbamoyl)-2-furyl}propyl]-N-{(E)-3-phenyl-2-propenyl}carbamoyl]-3-butenoic acid] | 1.3 | 0.74
